Measured values: ChEMBL document CHEMBL1124088, “Synthesis and evaluation of 3-substituted analogues of 1,2,3,4-tetrahydroisoquinoline as inhibitors of phenylethanolamine N-methyltransferase” (J Med Chem, 1988)

Legend:
[1] = target: T1, Phenylethanolamine N-methyltransferase (Bos taurus, UniProt P10938); assay: In vitro inhibitory activity measured against bovine adrenal phenylethanolamine N-methyltransferase(PNMT)
T1 sequence (P10938 whole entry): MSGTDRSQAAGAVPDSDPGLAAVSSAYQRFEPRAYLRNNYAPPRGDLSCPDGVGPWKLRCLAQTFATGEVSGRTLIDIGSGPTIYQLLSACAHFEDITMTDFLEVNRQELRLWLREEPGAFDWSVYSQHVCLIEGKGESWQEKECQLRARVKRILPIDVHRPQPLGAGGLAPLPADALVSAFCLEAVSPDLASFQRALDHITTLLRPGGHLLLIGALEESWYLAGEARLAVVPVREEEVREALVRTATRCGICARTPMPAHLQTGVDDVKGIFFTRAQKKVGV

[2] = target: T1, Phenylethanolamine N-methyltransferase; assay: In vitro inhibitory activity measured against bovine adrenal phenylethanolamine N-methyltransferase(PNMT); Ki values determined at incubation times of 5, 10, 15, 20 and 30 min

## OCC1Cc2ccccc2CN1 (configuration not stated)
[1]
  Ki: 2.4 µM

## COC(=O)C1Cc2ccccc2CN1 (configuration not stated)
[2]
  Ki: 69.5 µM

## OCC1Cc2ccc(Cl)c(Cl)c2CN1 (configuration not stated)
[1]
  Ki: 0.38 µM

## O=C(O)C1Cc2ccccc2CN1 (configuration not stated)
[1]
  Ki: > 2000 µM

## NC(=O)C1Cc2ccccc2CN1 (configuration not stated)
[1]
  Ki: 40.5 µM

## Clc1ccc2c(c1Cl)CNCC2
[1]
  Ki: 0.24 µM

## CCC1Cc2ccccc2CN1 (configuration not stated)
[1]
  Ki: 23.9 µM
